In PMC8869629, “Comparison of Various Solvent Extracts and Major Bioactive Components from Portulaca oleracea for Antioxidant, Anti-Tyrosinase, and Anti-α-Glucosidase Activities” (Antioxidants, 2022):
Converted amounts (≈) assume the structure as drawn.

Legend:
[1] = target: α-glucosidase (Saccharomyces cerevisiae, UniProt P53341); test: biochemical
Description: α-Glucosidase inhibitory activity was established in accordance with the described method with slight modifications. In brief, 100 μL of different concentrations of the sample, 380 μL of p-nitro-phenyl-α-D-glucopyranoside (p-NPG) (0.53 mM), and 20 μL of α-Glucosidase solution (1 units/mL) were mixed in 0.1 M potassium phosphate buffer (pH 6.8). After incubating at 37 °C for 20 min, 500 μL of sodium carbonate (0.1 M) was added in order to quench the reaction. The anti-α-glucosidase activity of the sample was determined by calculating the decrease in absorbance measured at 405 nm by the following equation,
Inhibition (%) = (A0 − A1)/A0 × 100, where A1 is the absorbance of the test sample and A0 is the absorbance of the control.

[2] = Hydroxyl radical scavenging assay; type: biochemical; conditions: mean ± SD (n = 3)
Description: The samples were evaluated for hydroxyl radical scavenging activity based on the previously described method.

[3] = DPPH radical scavenging assay; type: biochemical; conditions: mean ± SD (n = 3)
Description: The DPPH radical scavenging assay was determined by the reference method.

[4] = ABTS cation radical scavenging assay; type: biochemical; conditions: mean ± SD (n = 3)
Description: The ABTS cation radical scavenging assay was carried out using the reference method.

[5] = Superoxide anion radical scavenging assay (PMS-NADH-NBT); type: biochemical; conditions: isolated components (Table 5); mean ± SD (n = 3)
Description: Superoxide anion radical (O2^•−) scavenging activity was described earlier with slight changes. […] The reaction was initiated by adding 50 μL of NADH (468 μM) solution to the mixture. After incubating at room temperature for 5 min, the activity of samples was determined by calculating the decrease in absorbance measured at 560 nm by the following equation,
Superoxide anion radical scavenging activity (%) = (A0 − A1)/A0 × 100, where A1 is the absorbance of the test sample and A0 is the absorbance of the control.
IC50 values for the tested activities were determined by linear regression of the percentage of remaining superoxide anion radicals against sample concentration.

Chain of α-glucosidase (P53341 whole entry): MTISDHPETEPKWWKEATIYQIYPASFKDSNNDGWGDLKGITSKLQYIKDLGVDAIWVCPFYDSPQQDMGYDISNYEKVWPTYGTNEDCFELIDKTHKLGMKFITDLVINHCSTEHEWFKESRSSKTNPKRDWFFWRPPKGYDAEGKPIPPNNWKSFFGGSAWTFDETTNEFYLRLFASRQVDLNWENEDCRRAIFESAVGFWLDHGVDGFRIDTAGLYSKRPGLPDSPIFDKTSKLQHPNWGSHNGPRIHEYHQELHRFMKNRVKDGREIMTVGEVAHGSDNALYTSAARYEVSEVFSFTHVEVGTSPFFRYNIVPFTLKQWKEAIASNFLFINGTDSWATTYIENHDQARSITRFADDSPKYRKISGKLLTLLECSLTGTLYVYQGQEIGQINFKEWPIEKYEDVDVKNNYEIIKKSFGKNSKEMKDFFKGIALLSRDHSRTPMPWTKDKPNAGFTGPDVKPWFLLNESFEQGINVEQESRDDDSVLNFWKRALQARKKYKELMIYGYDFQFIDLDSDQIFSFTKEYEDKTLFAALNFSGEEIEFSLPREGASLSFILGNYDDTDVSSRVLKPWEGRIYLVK

| SMILES | IC50 Hydroxyl ([2]; isolated components (Table 5)) [µg/mL] | IC50 DPPH ([3]; isolated components (Table 5)) [µg/mL] | IC50 ABTS ([4]; isolated components (Table 5)) [µg/mL] | IC50 Hydroxyl ([2]; solvent extracts (Table 2)) [µg/mL] | IC50 DPPH ([3]; solvent extracts (Table 2)) [µg/mL] | IC50 ABTS ([4]; solvent extracts (Table 2)) [µg/mL] | IC50 [1] [µM] | IC50 Superoxide [5] [µg/mL] |
| --- | --- | --- | --- | --- | --- | --- | --- | --- |
| O=C(/C=C/c1ccc(O)c(O)c1)O[C@H](Cc1ccc(O)c(O)c1)C(=O)O [Rosmarinic acid, rosmarinic acid] | 6.56 ± 4.77 (≈ 18.2 µM) | 1.87 ± 0.09 (≈ 5.19 µM) | 27.11 ± 14.00 (≈ 75.2 µM) |  |  |  | 514 | 61.62 ± 6.43 (≈ 171 µM) |
| O=C(O)/C=C/c1ccc(O)c(O)c1 [Caffeic acid, caffeic acid] | 153.04 ± 85.84 (≈ 849 µM) | 0.81 ± 0.09 (≈ 4.5 µM) | 27.85 ± 18.95 (≈ 155 µM) |  |  |  | 942 | 57.34 ± 7.44 (≈ 318 µM) |
| O=C(O)/C=C/c1ccc(O)cc1 [p-Coumaric acid, p-coumaric acid] | 60.70 ± 69.24 (≈ 370 µM) | 204.13 ± 9.78 (≈ 1240 µM) | 27.01 ± 6.12 (≈ 165 µM) |  |  |  | > 2440 | 256.00 ± 16.27 (≈ 1560 µM) |

Continued, in another order:

| IC50 Hydroxyl ([2]; isolated components (Table 5)) [µg/mL] | IC50 DPPH ([3]; isolated components (Table 5)) [µg/mL] | IC50 ABTS ([4]; isolated components (Table 5)) [µg/mL] | IC50 Hydroxyl ([2]; solvent extracts (Table 2)) [µg/mL] | IC50 DPPH ([3]; solvent extracts (Table 2)) [µg/mL] | IC50 ABTS ([4]; solvent extracts (Table 2)) [µg/mL] | SMILES | IC50 [1] [µM] | IC50 Superoxide [5] [µg/mL] |
| --- | --- | --- | --- | --- | --- | --- | --- | --- |
| 11.46 ± 5.60 (≈ 40 µM) | 2.32 ± 0.17 (≈ 8.11 µM) | 8.75 ± 0.90 (≈ 30.6 µM) |  |  |  | O=c1c(O)c(-c2ccc(O)cc2)oc2cc(O)cc(O)c12 [Kaempferol, kaempferol] |  | 541.00 ± 18.47 (≈ 1890 µM) |
| 68.26 ± 65.58 (≈ 352 µM) | 3.81 ± 0.18 (≈ 19.6 µM) | 24.47 ± 16.45 (≈ 126 µM) |  |  |  | COc1cc(/C=C/C(=O)O)ccc1O [trans-Ferulic acid, trans-ferulic acid] | > 2060 | 541.00 ± 26.95 (≈ 2790 µM) |
| 58.62 ± 2.75 (≈ 266 µM) | 31.04 ± 2.12 (≈ 141 µM) | 19.34 ± 2.18 (≈ 87.8 µM) | 65.90 ± 1.23 (≈ 299 µM) | 39.88 ± 1.30 (≈ 181 µM) | 20.34 ± 1.69 (≈ 92.3 µM) | Cc1cc(C(C)(C)C)c(O)c(C(C)(C)C)c1 [BHT, Butylated hydroxytoluene, reference compound] |  |  |
| 9.75 ± 4.39 (≈ 32.3 µM) | 1.07 ± 0.13 (≈ 3.54 µM) | 11.46 ± 1.82 (≈ 37.9 µM) |  |  |  | O=c1c(O)c(-c2ccc(O)c(O)c2)oc2cc(O)cc(O)c12 [Quercetin, quercetin] |  | 44.08 ± 3.07 (≈ 146 µM) |
